In patent US20060217340A1, “Methods and products for treating hypertension by modulation of TRPC3 channel activity” (University of Vermont and State Agricultural College, priority 2005, published 2006):

What was measured:
Type in all cases: cell-based, rat
TRPC3 = assay: Western analysis of TRPC3 protein expression in arteries
Experimental: (§1) Western Analysis. Arterial segments were homogenized in lysis buffer (5 minutes, 4° C.) containing (in mM): 40 CAPS, 1 DL-Dithiothreitol (DTT), 10 EDTA, 15 MgCl2, 115 NaCl, 1 NaOrthovanadate, 1 NaF, 2.5 Urea, and 0.25% deoxychlorate, 10% glycerol, 1% NP-40, 0.2% SDS, and 1:50 mammalian protease inhibitor cocktail (Sigma, St. Louis, Mo., USA). Equal amounts of sample protein were separated on a 10% polyacrylamide gel and transferred to a nitrocellulose membrane. The membranes were exposed to a TRPC3 or TRPC6 polyclonal antibody (anti-rabbit 1:200 dilution, Alomone Labs, Jerusalem, Israel) and a […] (GAPDH) monoclonal antibody (anti-mouse, 1:1000 dilution, Chemicon Labs, Temecula, Calif., USA). Alexa-Fluor 680® goat anti-rabbit (Molecular Probes, Eugene, Oreg., USA) and IRDyeTM800 anti-mouse (Rockland Immunochemicals, Gilbertsville, Pa., USA) were used to fluorescently label the TRPC3 and GAPDH antibodies respectively. The density of signals specific for the TRPC3 and GAPDH bands in a given lane on a membrane were measured after scanning the membrane with an Odyssey® infared imaging system (Li-COR Biosciences, Lincoln, Nebr., USA). Quantified amounts were normalized to a total protein amount lane on the polyacrylamide gel.
Oligodeoxynucleotide Sequences and Reverse Permeabilization. TRPC6 sense and antisense oligodeoxynucleotides (ODN's) were designed as previously described (Welsh et al 2002 Circ Res 90, 248-250) and were as follows: sense, 5′-[…]-3′ (SEQ ID: 3) and 5′-GCACACGCAGCCTCTTCAC-3′ (SEQ ID: 4) antisense, 5′-[…]-3′ (SEQ ID: 5) and 5′-[…]-3′ (SEQ ID: 6). TRPC3 sense and antisense ODN's were designed based on the rat TRPC3 gene (Ohki et al 2000 J Biol Chem 275: 39055-39060) and are as follows: sense, 5′-[…]-3′ (SEQ ID: 7) and 5′-[…]-3′ (SEQ ID: 8); anti-sense, 5′-[…]-3′ (SEQ ID: 9) and 5′-[…]-3′ (SEQ ID: 10). The last five bases on the 5′ and 3′ end were phosphorothioated in order to limit ODN degradation. […]

TRPC6 = assay: Western analysis of TRPC6 protein expression in arteries; settings: cerebral arterial SMCs
Experimental: as §1
(§2) Oligodeoxynucleotide Sequences and Reverse Permeabilization. […]

[1] = test system: glyceraldehyde dehydrogenase (GAPDH); assay: Western analysis of GAPDH protein expression in cerebral artery; settings: 3 days organ culture
Experimental: as §1, §2

5′-GAGAACCATGAACTGGAATA-3′ (SEQ ID: 9) and 5′-ACGACCAACACGACCAGACA-3′ (SEQ ID: 10) (phosphorothioate ends, further chemistry not given here) [TRPC3 antisense, antisense ODNs based on the rat TRPC3 gene; last five bases on the 5′ and 3′ end phosphorothioated]
TRPC3 expression reduced (Western blots of arterial lysates) (TRPC3; TRPC3 antisense compared with sense treated arteries): ~60% | TRPC3 to GAPDH ratio less in antisense compared to sense treated samples (TRPC3; after 3 days of organ culture, n=4 each): 42.5±11.4% | effect on the expression of TRPC6 (TRPC6): no effect | effect on the expression of GAPDH [1]: no effect
